In publication PMC2955773 (ACS chemical biology, 2010):
Read-outs that look alike come from different tables or passages of the source. Values belong to the compound of their own block, whether it stands above or below them.

Experiments:
[1] = system: mitochondrial ROS generation in DLD1; assay: Mitochondrial ROS generation by MitoSox dye; assay type: cell-based, human; conditions: compared to DMSO
[2] = system: DLD1 cells; assay: ECM degradation assay; assay type: cell-based, human; conditions: SrcYF-transfected DLD1 cells, 10 μM, 1.5hrs
[3] = target: T1, Nox2 (Homo sapiens, UniProt P04839); assay: Nox2 cell-free system; assay type: biochemical; conditions: 10 μM
T1 sequence (P04839 2-570 limits assumed): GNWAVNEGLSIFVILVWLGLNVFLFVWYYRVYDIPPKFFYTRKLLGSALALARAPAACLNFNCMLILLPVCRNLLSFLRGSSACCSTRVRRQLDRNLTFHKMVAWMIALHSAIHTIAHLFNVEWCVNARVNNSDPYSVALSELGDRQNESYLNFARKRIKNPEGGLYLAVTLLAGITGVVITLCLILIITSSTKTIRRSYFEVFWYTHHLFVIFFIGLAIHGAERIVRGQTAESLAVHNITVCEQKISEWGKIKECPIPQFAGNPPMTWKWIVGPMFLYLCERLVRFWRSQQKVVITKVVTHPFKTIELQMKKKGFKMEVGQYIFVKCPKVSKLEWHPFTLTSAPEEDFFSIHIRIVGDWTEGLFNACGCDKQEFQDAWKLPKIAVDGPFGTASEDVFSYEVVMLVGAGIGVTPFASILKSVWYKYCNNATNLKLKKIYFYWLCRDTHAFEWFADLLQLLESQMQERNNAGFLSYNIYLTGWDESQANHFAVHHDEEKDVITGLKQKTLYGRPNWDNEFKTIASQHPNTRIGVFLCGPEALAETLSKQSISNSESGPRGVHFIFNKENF
T1 sequence (P13498 2-195 partner limits assumed): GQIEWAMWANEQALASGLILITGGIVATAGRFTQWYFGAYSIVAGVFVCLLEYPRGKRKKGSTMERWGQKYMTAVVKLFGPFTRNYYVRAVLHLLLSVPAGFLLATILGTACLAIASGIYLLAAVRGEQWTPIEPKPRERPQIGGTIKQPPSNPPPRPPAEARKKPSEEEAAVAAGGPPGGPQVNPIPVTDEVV

[4] = target: T1, Nox2; assay: Superoxide production in fMLP-treated human neutrophils; assay type: cell-based; conditions: 10 μM
[5] = system: DLD1 cells; assay: SrcYF-induced invadopodia formation; assay type: cell-based, human; conditions: SrcYF-transfected DLD1 cells, treated 1hr; ML171 10 μM
[6] = system: G-protein coupled receptors (GPCRs), channels and transporters expressed in the CNS; assay: Competitive binding to a large battery of CNS receptors; design: species or system human or rodent
[7] = system: ROS production; assay: ROS production measured by carboxy-H2-DCFDA staining; assay type: cell-based; conditions: second method of ROS detection
[8] = target: Rac1 (Homo sapiens, UniProt P63000); assay: Rac loading assay; assay type: biochemical; conditions: recombinant Rac1, compared with Mg2+ positive control
[9] = target: T2, serotonin 5-HT2C receptor (Homo sapiens, UniProt P28335); assay: Competitive binding assay; design: species or system human or rodent
T2 sequence (P28335 33-458): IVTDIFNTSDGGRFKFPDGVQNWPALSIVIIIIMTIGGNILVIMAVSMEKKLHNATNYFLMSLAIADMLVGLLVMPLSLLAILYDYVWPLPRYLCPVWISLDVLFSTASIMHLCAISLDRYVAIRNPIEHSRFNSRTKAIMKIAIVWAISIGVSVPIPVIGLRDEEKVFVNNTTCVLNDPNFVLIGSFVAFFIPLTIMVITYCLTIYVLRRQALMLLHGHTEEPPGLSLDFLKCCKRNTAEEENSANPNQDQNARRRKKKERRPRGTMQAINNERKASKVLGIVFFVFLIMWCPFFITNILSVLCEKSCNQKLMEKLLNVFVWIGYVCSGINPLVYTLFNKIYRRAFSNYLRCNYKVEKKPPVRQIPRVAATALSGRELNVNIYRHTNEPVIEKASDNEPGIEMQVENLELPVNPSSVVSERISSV

[10] = target: serotonin 5-HT2B receptor (Homo sapiens, UniProt P41595); assay: Competitive binding assay; design: species or system human or rodent
[11] = target: T3, adrenergic alpha2C receptor (Homo sapiens, UniProt P18825); assay: Competitive binding assay; design: species or system human or rodent
T3 sequence (P18825 1-462): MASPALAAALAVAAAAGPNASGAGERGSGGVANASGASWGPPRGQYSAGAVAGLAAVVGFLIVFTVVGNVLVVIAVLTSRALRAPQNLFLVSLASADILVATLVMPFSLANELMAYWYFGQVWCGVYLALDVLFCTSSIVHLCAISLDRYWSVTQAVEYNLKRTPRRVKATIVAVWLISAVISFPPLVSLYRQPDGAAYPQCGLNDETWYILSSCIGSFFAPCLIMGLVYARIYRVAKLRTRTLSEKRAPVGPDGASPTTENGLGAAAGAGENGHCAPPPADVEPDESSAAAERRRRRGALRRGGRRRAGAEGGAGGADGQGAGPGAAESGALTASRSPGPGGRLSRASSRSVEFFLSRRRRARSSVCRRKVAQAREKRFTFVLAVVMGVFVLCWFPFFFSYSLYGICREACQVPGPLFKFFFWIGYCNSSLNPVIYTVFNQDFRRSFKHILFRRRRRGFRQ

[12] = target: T4, Nox1 (Homo sapiens, UniProt Q9Y5S8); assay: HEK293-Nox1 reconstituted cell system, ROS generation by CL assay; conditions: HEK293-Nox1 reconstituted cell system treated with ML171
T4 sequence (Q9Y5S8 1-564): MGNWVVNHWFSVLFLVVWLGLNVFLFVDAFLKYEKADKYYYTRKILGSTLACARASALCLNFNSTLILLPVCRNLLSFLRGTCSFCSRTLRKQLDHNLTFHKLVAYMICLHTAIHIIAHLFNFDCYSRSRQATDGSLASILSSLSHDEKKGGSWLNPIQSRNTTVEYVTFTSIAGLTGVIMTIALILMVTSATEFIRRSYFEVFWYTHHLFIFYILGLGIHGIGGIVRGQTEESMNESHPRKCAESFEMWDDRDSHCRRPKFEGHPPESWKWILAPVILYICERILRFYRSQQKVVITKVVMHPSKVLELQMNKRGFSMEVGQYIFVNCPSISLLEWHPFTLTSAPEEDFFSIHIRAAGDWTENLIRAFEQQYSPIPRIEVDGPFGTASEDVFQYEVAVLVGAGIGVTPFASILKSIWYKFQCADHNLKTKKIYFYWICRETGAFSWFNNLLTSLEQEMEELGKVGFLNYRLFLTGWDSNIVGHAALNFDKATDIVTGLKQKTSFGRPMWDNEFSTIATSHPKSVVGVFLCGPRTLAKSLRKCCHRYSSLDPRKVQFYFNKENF
T4 sequence (P13498 2-195 partner limits assumed): T1 sequence (P13498 2-195 partner limits assumed)

[13] = target: xanthine oxidase (XO) (Bos taurus, UniProt P80457); assay: Xanthine oxidase specificity assay; assay type: biochemical
[14] = target: T4, Nox1; assay: Luminol-based chemiluminescence; assay type: cell-based; conditions: for ability to block Nox1-dependent ROS generation: HT29 cells, luminol-based CL assay
[15] = secondary concentration-response analysis
[16] = HT29 cell-based assay, ROS generation, SAR study
[17] = read-out: Micromolar IC50 HT29 Assay, HT29 cell-based assay, ROS generation, SAR study

Sequence of serotonin 5-HT2B receptor (P41595 whole entry): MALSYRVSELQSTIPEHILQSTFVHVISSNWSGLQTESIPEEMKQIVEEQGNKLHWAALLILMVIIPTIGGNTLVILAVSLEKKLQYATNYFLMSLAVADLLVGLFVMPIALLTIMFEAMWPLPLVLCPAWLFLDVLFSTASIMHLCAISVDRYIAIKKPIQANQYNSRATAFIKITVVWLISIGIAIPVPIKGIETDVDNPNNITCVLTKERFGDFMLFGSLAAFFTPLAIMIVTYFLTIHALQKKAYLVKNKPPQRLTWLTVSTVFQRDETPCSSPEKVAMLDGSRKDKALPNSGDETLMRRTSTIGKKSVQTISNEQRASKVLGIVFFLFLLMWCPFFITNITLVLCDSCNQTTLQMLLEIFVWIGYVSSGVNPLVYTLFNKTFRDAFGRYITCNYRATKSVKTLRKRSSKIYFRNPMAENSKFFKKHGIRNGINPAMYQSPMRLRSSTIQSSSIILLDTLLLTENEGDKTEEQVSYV
Sequence of xanthine oxidase (XO) (P80457 2-1332): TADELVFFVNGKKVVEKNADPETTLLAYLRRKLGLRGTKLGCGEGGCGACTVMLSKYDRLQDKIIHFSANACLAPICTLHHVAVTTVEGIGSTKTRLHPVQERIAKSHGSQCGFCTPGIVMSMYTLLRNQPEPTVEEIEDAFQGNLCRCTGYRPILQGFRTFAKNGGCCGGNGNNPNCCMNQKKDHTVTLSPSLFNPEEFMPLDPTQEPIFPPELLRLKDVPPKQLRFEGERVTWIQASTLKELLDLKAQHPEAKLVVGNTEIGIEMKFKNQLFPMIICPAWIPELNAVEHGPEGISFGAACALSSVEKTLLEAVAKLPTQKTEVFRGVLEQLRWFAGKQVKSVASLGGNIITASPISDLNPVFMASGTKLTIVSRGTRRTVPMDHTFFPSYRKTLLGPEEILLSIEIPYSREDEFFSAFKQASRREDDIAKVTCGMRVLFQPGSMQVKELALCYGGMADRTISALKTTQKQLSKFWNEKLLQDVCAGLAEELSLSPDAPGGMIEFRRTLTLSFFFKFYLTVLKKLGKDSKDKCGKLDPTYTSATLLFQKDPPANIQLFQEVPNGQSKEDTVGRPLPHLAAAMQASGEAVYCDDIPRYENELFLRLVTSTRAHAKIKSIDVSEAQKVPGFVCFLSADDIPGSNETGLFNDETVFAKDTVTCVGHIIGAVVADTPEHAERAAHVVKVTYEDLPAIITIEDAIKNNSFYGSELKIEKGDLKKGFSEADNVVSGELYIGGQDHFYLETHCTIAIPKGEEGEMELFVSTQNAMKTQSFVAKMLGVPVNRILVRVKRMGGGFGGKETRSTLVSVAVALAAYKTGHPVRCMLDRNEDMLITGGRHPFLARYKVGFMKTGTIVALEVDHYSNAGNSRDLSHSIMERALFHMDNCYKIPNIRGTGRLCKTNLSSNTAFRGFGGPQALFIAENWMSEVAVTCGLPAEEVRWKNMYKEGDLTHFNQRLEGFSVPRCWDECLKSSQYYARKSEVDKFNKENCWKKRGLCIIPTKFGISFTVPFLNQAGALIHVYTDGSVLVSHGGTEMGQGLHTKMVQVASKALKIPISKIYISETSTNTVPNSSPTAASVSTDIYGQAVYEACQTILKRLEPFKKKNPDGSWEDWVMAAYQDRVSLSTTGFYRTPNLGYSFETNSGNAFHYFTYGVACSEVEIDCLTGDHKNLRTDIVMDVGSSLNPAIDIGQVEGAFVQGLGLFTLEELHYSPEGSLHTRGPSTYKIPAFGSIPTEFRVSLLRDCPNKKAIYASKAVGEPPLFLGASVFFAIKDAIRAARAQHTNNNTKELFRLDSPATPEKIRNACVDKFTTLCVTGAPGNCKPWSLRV

SMILES: c1ccc2c(c1)[I+]c1ccccc1-2 [DPI, diphenylene iodonium, reference compound]
mitochondrial ROS generation [1]: slightly reduced ROS generation in mitochondria | ECM degradation [2]: blocked this effect | superoxide formation [3]: dramatically inhibit superoxide formation | superoxide formation [4]: dramatically inhibit superoxide formation

SMILES: CC(=O)c1ccc2c(c1)Nc1ccccc1S2 [ML171, 2-acetylphenothiazine]
mitochondrial ROS generation [1]: did not decrease mitochondrial ROS generation | invadopodia formation [5]: strongly decreased SrcYF-induced invadopodia formation | ECM degradation [2]: strongly reduced the ability of SrcYF-transfected DLD1 cells to degrade the ECM | binding to receptors of the battery [6]: did not significantly bind most of the receptors tested | ROS production by carboxy-H2-DCFDA staining [7]: efficiently blocks ROS production | block of Rac1 loading with GTP [8]: only marginally block Rac1 loading | % of inhibition ([9]; primary binding assay): > 60% | Ki [9, 15]: micromolar range | % of inhibition ([10]; primary binding assay): > 60% | Ki [10, 15]: micromolar range | % of inhibition ([11]; primary binding assay): > 60% | Ki [11, 15]: micromolar range | rescue of ROS generation by over-expression of Nox1, NoxA1 or NoxO1 [12]: only increasing over-expression of Nox1 could rescue ROS generation | inhibition of XO-dependent ROS generation [13]: unable to inhibit XO-dependent ROS generation

Micromolar IC50 HT29 Assay [14, 16]: Inactive (AID 2808)
SMILES: OCCN1CCN(CCCN2c3ccccc3Sc3ccc(Cl)cc32)CC1 [SR-01000000137-4]

SMILES: CN(C)CCCN1c2ccccc2Sc2ccc(C(F)(F)F)cc21 [SR-01000000224-4, Triflupromazine, reference compound]
Micromolar IC50 HT29 Assay [14, 16]: Inactive (AID 2808)

Micromolar IC50 HT29 Assay [14, 16]: Inactive (AID 2808)
SMILES: CN(C)CCCN1c2ccccc2Sc2ccccc21 [SR-01000000228-4, promazine, reference compound]

SMILES: CN1CCN(CCCN2c3ccccc3Sc3ccc(C(F)(F)F)cc32)CC1.Cl.Cl [SR-01000003020-6]
Micromolar IC50 HT29 Assay [14, 16]: Inactive (AID 2808)

Micromolar IC50 HT29 Assay [14, 16]: Inactive (AID 2808)
SMILES: Cl.Cl.OCCN1CCN(CCCN2c3ccccc3Sc3ccc(C(F)(F)F)cc32)CC1 [SR-01000003048-5, Fluorophenazine, reference compound]

IC50 [14, 17]: 940 nM
SMILES: COc1ccc2c(c1)Sc1ccccc1N2 [SR-01000025134-3]

IC50 [14, 17]: 920 nM
SMILES: CCOC(=O)Nc1ccc2c(c1)Nc1ccccc1S2 [SR-01000477673-3]

IC50 [14, 17]: 250 nM
SMILES: Clc1ccc2c(c1)Nc1ccccc1S2 [SR-01000596948-2]

SMILES: c1ccc2c(c1)Nc1ccccc1S2 [SR-01000721844-3]
IC50 [14, 17]: 370 nM

IC50 [14, 17]: 1400 nM
SMILES: O=[N+]([O-])c1ccc2c(c1)Sc1ccc(C(F)(F)F)cc1N2 [SR-03000000695-1]

IC50 [14, 17]: 177 nM
SMILES: COc1ccc2c(c1)Sc1ccc(Cl)cc1N2 [SR-03000000698-1]

IC50 [14, 17]: 5300 nM
SMILES: Cc1ccc(S(=O)(=O)c2ccc3c(c2)Sc2ccc(Cl)cc2N3)cc1 [SR-03000000707-1]

IC50 [14, 17]: 360 nM
SMILES: CC(O)c1ccc2c(c1)Nc1ccccc1S2 (stereo not drawn) [SR-03000000760-1]

IC50 [14]: > 50000 nM | Micromolar IC50 HT29 Assay [14, 16]: Inactive (AID 2808)
SMILES: CN(C)CCCN1c2ccccc2Sc2ccc(Cl)cc21 [chlorpromazine, reference compound]
invadopodia formation [5]: did not observe a decreased ability of DLD1 cells to form cortactin-positive, F-actin-rich invadopodia

SMILES: OCCN1CCN(CCCN2c3ccccc3Sc3ccc(Cl)cc32)CC1 [perphenazine, reference compound]
ability to block Nox1-dependent ROS generation [14]: unable to block Nox1-dependent ROS generation

SMILES: CN1CCN(CCCN2c3ccccc3Sc3ccc(C(F)(F)F)cc32)CC1 [trifluperazine, reference compound]
ability to block Nox1-dependent ROS generation [14]: unable to block Nox1-dependent ROS generation
